Assay results from patent publication US11964996B2, “2-alkynylmannose derivative and application thereof” (priority 2020, dated 2024).

What follows are molecules tested against T1, FimH proteins (Escherichia coli, UniProt Q1R2J4) (assay: hemagglutination inhibition (HAI) assay: UPEC UTI89 with guinea pig red blood cells). Conditions: read-out: HAI EC90 (minimum concentration for inhibiting hemagglutination).
T1 construct: endogenous in cells; host or cells: UPEC strain UTI89 (whole bacteria)
Assay type: cell-based, uropathogenic Escherichia coli (UPEC) UTI89
Description: In the present example, the mannose derivatives A1 to A107 that were prepared in Examples 1 to 12 were analyzed in hemagglutination inhibition (HAI) assays to determine inhibitory effects of the compounds on the function/activity of FimH proteins.
1. Preparation of a guinea pig red blood cell solution: an adult guinea pig was anesthetized with ethyl ether, blood was sampled from the heart, placed in an EDTA blood collection tube, and centrifuged at 2,000 rpm for 5 min, serum was removed, the sample was transferred in a centrifuge tube (15 mL), sterilized PBS was added, the sample was centrifuged at 1,500 rpm for 10 min, a supernatant was removed, the sample was transferred in a centrifuge tube (50 mL), PBS was added, the sample was centrifuged at 1,500 rpm for 10 min and repeatedly washed twice, and red blood cells were slightly aspirated into a new centrifuge tube (50 mL) to obtain a 5% guinea pig red blood cell solution.
2. Preparation of a bacteria solution: a UPEC cell line UTI89 was inoculated on a medium plate and cultured in an incubator at 37° C. overnight. Single colonies were picked and inoculated in an LB medium in a sterilized conical flask, and cultured at 37° C. and 170 r/min overnight. When an OD value at 540 nm was about 0.8 on a microplate reader, the bacterial concentration was about 10^8-10^9 cfu/mL, the bacteria solution was centrifuged at 2,000 rpm for 10 min, a supernatant was removed, and 1 mL of bacteria solution was prepared into 0.1 mL of PBS bacteria solution. […] The bacteria and the medium were uniformly mixed by shaking, and reacted in an incubator at 25° C. for about 20-40 min. When the plate was read, the wells in which complete agglutination occurred were used as 4HAU for the hemagglutination titer of the bacteria. For example, if the endpoint titer of hemagglutination is 1:256, the dilution multiple of the 4HAU antigen is 1:64 (256 divided by 4). Bacteria solutions at corresponding concentrations were prepared according to the experimental results.
3. Activity assay: a compound to be tested or a standard product was placed in a 96-well microtest plate, 50 μL of drug at an initial concentration of 200 μM was placed in the first well, and from the second well, 25 μL of PBS was added to each well to dilute the drug in proportion. The drug and the medium in the first well were mixed, 25 μL of mixed drug solution was placed in the second well, the drug solution was diluted in sequence to the last well, and 25 μL of drug solution was removed. 25 μL of bacteria solution was placed in each well of the culture plate containing the diluted drug, and cultured at 37° C. for 40 min. 25 μL of 5% guinea pig red blood cell suspension was placed in each well, and slightly uniformly mixed with the drug, and the plate was placed at 4° C. for about 1 h. When results were determined, the plate was tilted 60°, and whether the red blood cells flowed like teardrops was observed.
Mannosyl proteins are expressed on the surface of red blood cells in a guinea pig, which can bind to FimH proteins of UTI89 to cause hemagglutination. It can be observed with the naked eyes that the red blood cells form film-like agglutination at the bottom of the well, and loose red dots can be seen in the center. The FimH protein inhibitor competitively binds to FimH proteins to inhibit hemagglutination. It can be observed with the naked eyes that all the red blood cells sink and concentrate at the bottom of the well to form dense dots. The minimum concentration for inhibiting hemagglutination is expressed as an EC90 value of a compound. The final concentration of the compound in the first well is 66700 nM, the concentration in the second well is half that in the first well, the concentration in the third well is half that in the second well, and so on. […] A low EC90 value indicates high activity of a compound.

Q: For `COCCOc1ccc(-n2cc(C#C[C@H]3O[C@H](CO)[C@@H](O)[C@H](O)[C@@]3(O)C#CC3CC3)cn2)cc1` [Compound A98], which EC90 is on record?
A: < 0.1 nM

Q: With `OC[C@H]1O[C@H](C#Cc2cnn(-c3ccc(O[C@@H]4CCOC4)cc3)c2)[C@](O)(C#CC2CC2)[C@@H](O)[C@@H]1O` [Compound A99] as the molecule, how does the EC90 read?
A: < 0.1 nM

Q: Which EC90 does the source give for `OC[C@H]1O[C@H](C#Cc2cnn(-c3ccc(O[C@H]4CCOC4)cc3)c2)[C@](O)(C#CC2CC2)[C@@H](O)[C@@H]1O` [Compound A100] here?
A: < 0.1 nM

Q: With `OC[C@H]1O[C@H](C#Cc2cnn(-c3cccc(F)c3)c2)[C@](O)(C#Cc2ccccc2)[C@@H](O)[C@@H]1O` [Compound A101] as the molecule, how does the EC90 read?
A: 0.25 nM

Q: For `COCCOc1ccc(-n2cc(C#C[C@H]3O[C@H](CO)[C@@H](O)[C@H](O)[C@@]3(O)C#Cc3ccccc3)cn2)cc1` [Compound A102], which EC90 is on record?
A: < 0.1 nM

Q: For `OC[C@H]1O[C@H](C#Cc2cnn(-c3ccc(O[C@@H]4CCOC4)cc3)c2)[C@](O)(C#Cc2ccccc2)[C@@H](O)[C@@H]1O` [Compound A103], which EC90 is on record?
A: < 0.1 nM

Q: `OC[C@H]1O[C@H](C#Cc2cnn(-c3ccc(O[C@H]4CCOC4)cc3)c2)[C@](O)(C#Cc2ccccc2)[C@@H](O)[C@@H]1O` [Compound A104] was tested. Which EC90 did it give?
A: < 0.1 nM

Q: With `OC[C@H]1O[C@H](C#Cc2cnn(-c3ccc(C4CC4)cc3)c2)[C@](O)(C#CC2CC2)[C@@H](O)[C@@H]1O` [Compound A105] as the molecule, how does the EC90 read?
A: 0.13 nM

Q: How did the EC90 turn out when `CCOc1ccc(-n2cc(C#C[C@H]3O[C@H](CO)[C@@H](O)[C@H](O)[C@@]3(O)C#CC3CC3)cn2)cc1` [Compound A106] was run?
A: < 0.1 nM

Q: With `CC(C)Oc1ccc(-n2cc(C#C[C@H]3O[C@H](CO)[C@@H](O)[C@H](O)[C@@]3(O)C#CC3CC3)cn2)cc1` [Compound A107] as the molecule, how does the EC90 read?
A: < 0.1 nM
